Entries after “also recorded” stand apart in the source; their conditions may differ.
Columns and labels:
[1] = target: T1, Δ^5 -3-ketosteroid isomerase (EC 5.3.3.1) (Comamonas testosteroni, UniProt P00947); experiment: irreversible inactivation of crystalline purified bacterial Δ^5-3-ketosteroid isomerase by acetylenic steroids (Kitz and Wilson kinetic analysis); assay type: biochemical, Pseudomonas testosteroni
Experimental: The inactivation is progressive with time, and half-lives in the range of 150-1320 sec are observed at concentrations of 20-200 μM of the two inhibitors. The enzymatic activities of control vessels which received only equivalent volumes of 1,4-dioxane remained constant at initial activities.
The initial rates of inactivation of the isomerase by (1) and (2) can be analyzed by the method of Kitz and Wilson^8 since very satisfactory pseudo-first-order behavior was observed. It is assumed that [I] (inhibitor) >> [E] (enzyme), that [E.I] (the reversible enzyme-inhibitorcomplex) is at all times in equilibrium with enzyme and inhibitor, and that ^k cat >> ^k inh. The scheme for the formation of EI' (the irreversible enzyme-inhibitor derivative) may then be represented as follows.
If the enzyme-inhibitor solution is diluted extensively prior to assay, the active enzyme (ε) = [E] + [E.I]. Then -d(ε)/dt = k3 [E.I.], and K1 = ([E][I])/[EI]. Thus [formula] where Et = total amount of enzyme in system.
If one defines [formula] Consequently double reciprocal plots of kapp with respect to [I] should be linear, with slopes and intercepts permitting the determination of K1 and k3 where the latter is the overall rate constant for the irreversible inhibition process.
From plots of 1n ε (residual enzymatic activity) vs. time, kapp has been determined at five inhibitor concentrations for both compounds 1 and 2, i.e. estryne and pregnyne. Strict linearity of the semilogarithmic plots has been observed in all cases, over greater than two half-lives. A plot of 1/kapp vs. 1/[I] was linear and gave k3 and K1 (FIG. 1). For compound 1, K1 = 56 μM and k3 = 1.98 × 10^-3 sec^-1, and for compound 2, K1 = 32 μM and k3 = 4.10 × 10^-3 sec^-1.
Studies were performed using crystalline purified bacterial Δ^5 -3-ketosteroid isomerase (from P. testosteroni), under pseudo first order conditions using the kinetic analysis of R. Kitz and I. B. Wilson [J. Biol. Chem., 237, 3245 (1964)].

[2] = system: endogenous androgen biosynthesis; experiment: study in intact male rats: weights of sex accessory tissue and other organs; assay type: in vivo, male Sprague-Dawley rats; settings: 7 days; for Adrenal weight (± Sem): control 28 ± 2; for Dorsal Lateral Prostate weight (± Sem): control 252 ± 14; for Seminal Vesicles weight (± Sem): control 470 ± 26; for Ventral Prostate weight (± Sem): control 482 ± 24; for Kidney weight (± Sem): control 1410 ± 38; for Testis weight (± Sem): control 1580 ± 23
Experimental: Studies with intact male Sprague-Dawley rats (300g body weight) are illustrated for compounds (1) and (2).
Similarly, compound (2), […] rats at a dosage of 20mg per kilo for 7 days produced 20% reduction in weight of the ventral prostate and 28% reduction of the dorsal lateral prostate.
The following data illustrates the inhibiting effect of estryne and pregnyne on Δ^5 -3-ketosteroid isomerase (EC 5.3.3.1) as evidenced by a depression of the wet weight of the sex accessory tissue in the mature male rat treated with the estryne and pregnyne.
A. Male rats were used to assess the effect of estryne on endogenous androgen biosynthesis at varying doses (1-20 mg/kg body weight). […] On the eighth day the animals were sacrificed and the ventral prostate, dorsal lateral prostate, seminal vesicles, testes, kidneys, and adrenals were removed and weighed. Samples of each tissue were preserved in 10% buffered formalin for histological examination.
B. Male rats were treated with 19-norpregnyne by a regimen exactly as described for the estryne.

[3] = target: T1, Δ^5 -3-ketosteroid isomerase (EC 5.3.3.1); experiment: irreversible inactivation of crystalline purified bacterial Δ^5-3-ketosteroid isomerase by acetylenic steroids (Kitz and Wilson kinetic analysis); assay type: biochemical, Pseudomonas testosteroni; settings: 24 hr at 4° vs. 1 mM potassium phosphate buffer, pH 7.0
[4] = target: T2, cytosol androgen receptor (prostate androgen binding protein) (Rattus norvegicus, UniProt P15207); experiment: inhibition of nuclear uptake of ^3H-dihydrotestosterone in ventral prostate minces (binding to the prostatic androgen receptor)
T2 construct: freshly minced ventral prostate tissue obtained from rats castrated 24 hours before sacrifice; from tissue; host or cells: ventral prostate minces of castrated rats
T2 sequence (P15207 1-902): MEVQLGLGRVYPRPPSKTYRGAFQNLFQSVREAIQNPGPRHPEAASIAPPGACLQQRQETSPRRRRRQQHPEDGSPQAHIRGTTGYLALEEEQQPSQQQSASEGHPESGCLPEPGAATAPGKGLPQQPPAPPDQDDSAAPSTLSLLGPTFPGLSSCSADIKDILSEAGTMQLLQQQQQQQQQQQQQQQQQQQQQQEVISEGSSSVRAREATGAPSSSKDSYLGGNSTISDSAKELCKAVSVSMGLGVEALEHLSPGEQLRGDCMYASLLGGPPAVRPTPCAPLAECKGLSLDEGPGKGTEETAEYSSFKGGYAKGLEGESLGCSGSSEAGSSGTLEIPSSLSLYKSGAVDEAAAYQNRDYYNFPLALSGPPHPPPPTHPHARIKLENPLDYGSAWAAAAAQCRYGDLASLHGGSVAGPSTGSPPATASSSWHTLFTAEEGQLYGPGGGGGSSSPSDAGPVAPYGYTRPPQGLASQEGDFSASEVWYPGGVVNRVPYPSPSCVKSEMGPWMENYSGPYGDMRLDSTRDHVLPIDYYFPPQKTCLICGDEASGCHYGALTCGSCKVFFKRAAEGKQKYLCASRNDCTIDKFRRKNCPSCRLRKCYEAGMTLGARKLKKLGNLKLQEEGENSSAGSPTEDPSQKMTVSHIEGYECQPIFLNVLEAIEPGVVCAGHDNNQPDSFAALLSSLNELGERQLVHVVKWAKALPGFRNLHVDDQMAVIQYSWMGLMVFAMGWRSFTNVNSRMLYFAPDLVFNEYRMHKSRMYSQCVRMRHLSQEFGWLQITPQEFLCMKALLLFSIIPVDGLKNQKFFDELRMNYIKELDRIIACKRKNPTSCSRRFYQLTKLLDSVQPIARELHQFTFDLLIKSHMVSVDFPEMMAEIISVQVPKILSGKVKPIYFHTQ
Experimental: The binding to the cytosol androgen receptor was determined by the procedure of Fang (5) with modification. […] The amount of radioactivity in the nuclei is expressed as observed counts per minute per 100 μg DNA.

[5] = 20mg per kilo per day, i.p. in propylene glycol

T1 sequence (P00947 whole entry, stated change not applied): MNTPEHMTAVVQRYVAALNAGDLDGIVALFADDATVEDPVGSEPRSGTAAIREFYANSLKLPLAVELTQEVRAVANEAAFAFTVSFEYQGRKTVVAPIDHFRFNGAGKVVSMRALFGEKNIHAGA

Structure (SMILES): CC(=O)[C@H]1CC[C@H]2[C@@H]3CC#CCC(=O)CCC(=O)[C@H]3CC[C@]12C [Compound 2, 5,10-seco-19-norpregn-5-yne-3,10,20-trione]
- irreversible inhibition / inactivation of the enzyme ([1]; in words): rapid irreversible inhibition; also recorded: rapid irreversible and complete inactivation of the enzyme; also recorded: Powerful irreversible inhibition
- half-life of enzyme inactivation ([1]; pH 7.0, 20-200 μM of the two inhibitors, in 1,4-dioxane): 2.5 to 22 min
- kinact ([1]; pH 7, pseudo first order conditions, five inhibitor concentrations (10-fold range), read-out: k3, overall rate constant for the irreversible inhibition process): 0.0041 s⁻¹
- Ki ([1]; pseudo first order conditions, five inhibitor concentrations (10-fold range), read-out: K1 (KI), inhibitor dissociation constant): 32 µM
- reduction in weight of the dorsal lateral prostate [2, 5]: 28%
- reduction in weight of the ventral prostate [2, 5]: 20%
- dose dependence of the effect on prostatic weight ([2]; 1-20 mg/kg, in words): dose dependent
- Adrenal weight (± Sem) ([2]; pregnyne 1 mg/kg daily i.p.): 22 ± 2 mg
- Dorsal Lateral Prostate weight (± Sem) ([2]; pregnyne 1 mg/kg daily i.p.): 205 ± 14 mg
- Seminal Vesicles weight (± Sem) ([2]; pregnyne 1 mg/kg daily i.p.): 423 ± 21 mg
- Ventral Prostate weight (± Sem) ([2]; pregnyne 1 mg/kg daily i.p.): 405 ± 18 mg
- Kidney weight (± Sem) ([2]; pregnyne 1 mg/kg daily i.p.): 1360 ± 48 mg
- Testis weight (± Sem) ([2]; pregnyne 1 mg/kg daily i.p.): 1530 ± 68 mg
- Adrenal weight (± Sem) ([2]; pregnyne 5 mg/kg daily i.p.): 25 ± 2 mg
- Dorsal Lateral Prostate weight (± Sem) ([2]; pregnyne 5 mg/kg daily i.p.): 208 ± 11 mg
- Seminal Vesicles weight (± Sem) ([2]; pregnyne 5 mg/kg daily i.p.): 384 ± 17 mg
- Ventral Prostate weight (± Sem) ([2]; pregnyne 5 mg/kg daily i.p.): 402 ± 27 mg
- Kidney weight (± Sem) ([2]; pregnyne 5 mg/kg daily i.p.): 1370 ± 42 mg
- Testis weight (± Sem) ([2]; pregnyne 5 mg/kg daily i.p.): 1510 ± 44 mg
- Adrenal weight (± Sem) ([2]; pregnyne 10 mg/kg daily i.p.): 26 ± 1 mg
- Dorsal Lateral Prostate weight (± Sem) ([2]; pregnyne 10 mg/kg daily i.p.): 182 ± 19 mg
- Seminal Vesicles weight (± Sem) ([2]; pregnyne 10 mg/kg daily i.p.): 390 ± 14 mg
- Ventral Prostate weight (± Sem) ([2]; pregnyne 10 mg/kg daily i.p.): 386 ± 20 mg
- Kidney weight (± Sem) ([2]; pregnyne 10 mg/kg daily i.p.): 1310 ± 60 mg
- Testis weight (± Sem) ([2]; pregnyne 10 mg/kg daily i.p.): 1530 ± 53 mg
- Adrenal weight (± Sem) ([2]; pregnyne 20 mg/kg daily i.p.): 31 ± 2 mg
- Dorsal Lateral Prostate weight (± Sem) ([2]; pregnyne 20 mg/kg daily i.p.): 180 ± 14 mg
- Seminal Vesicles weight (± Sem) ([2]; pregnyne 20 mg/kg daily i.p.): 380 ± 9 mg
- Ventral Prostate weight (± Sem) ([2]; pregnyne 20 mg/kg daily i.p.): 360 ± 21 mg
- Kidney weight (± Sem) ([2]; pregnyne 20 mg/kg daily i.p.): 1360 ± 43 mg
- Testis weight (± Sem) ([2]; pregnyne 20 mg/kg daily i.p.): 1480 ± 63 mg
- restoration of enzymatic activity by prolonged dialysis [3]: inability to restore enzymatic activity
- remaining activity at 2 µM ([4]; rat, 1 h, pH 7.4, steroid 2 × 10^-6 M with ^3H-DHT 2 × 10^-9 M, read-out: nuclear uptake of ^3H-DHT, % Control): 137%
- CPM/100 DNA (nuclear uptake of ^3H-DHT) ([4]; steroid 2 × 10^-6 M with ^3H-DHT 2 × 10^-9 M, control 8,471): 11,636 CPM/100 DNA
- inhibition of androgen uptake by the nuclei ([4]; ventral prostate minces, in words): no inhibition of androgen uptake by the nuclei

— US4087461A, “Anti-androgenic steroids” (The Johns Hopkins University, priority 1977, dated 1978)
